From patent US12583884B2, “3beta-(benzyloxy)-17alpha-methyl-pregn-5-en-20-one for use in the treatment of cognitive disorders” (AELIS FARMA, priority 2018, dated 2026)
Where two headings read alike, the source gives them in different places.

Assays:
[1] = biological target: T1, Adenosine A1 (Homo sapiens, UniProt P30542); experiment: CEREP binding profile: A1
T1 construct: CEREP
From the text: (§1) The CEREP High-throughput profile consists of a broad collection of 80 transmembrane and soluble receptors, ion channels and G-Protein coupled receptors.

[2] = biological target: T2, Adenosine A3 (Homo sapiens, UniProt P0DMS8); experiment: CEREP binding profile: A3
T2 construct: CEREP
T2 sequence (P0DMS8 whole entry): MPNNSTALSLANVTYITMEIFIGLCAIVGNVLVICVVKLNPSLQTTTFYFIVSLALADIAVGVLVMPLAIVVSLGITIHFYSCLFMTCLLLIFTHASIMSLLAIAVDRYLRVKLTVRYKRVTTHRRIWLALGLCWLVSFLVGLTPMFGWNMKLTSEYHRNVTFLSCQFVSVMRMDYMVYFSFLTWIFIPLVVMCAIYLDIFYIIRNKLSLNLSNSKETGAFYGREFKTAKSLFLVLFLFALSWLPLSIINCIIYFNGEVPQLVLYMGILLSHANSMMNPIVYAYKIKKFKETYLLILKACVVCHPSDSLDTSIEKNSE
From the text: as §1

[3] = biological target: T3, Adrenergic beta2 (Homo sapiens, UniProt P07550); experiment: CEREP binding profile: beta2
T3 construct: CEREP
From the text: as §1

[4] = biological target: T4, Angiotensin-II AT2 (Homo sapiens, UniProt P50052); experiment: CEREP binding profile: AT2
T4 construct: CEREP
From the text: as §1

[5] = biological target: T5, Bradykinin B2 (Homo sapiens, UniProt P30411); experiment: CEREP binding profile: B2
T5 construct: CEREP
From the text: as §1

[6] = biological target: T6, Chemokines CCR1 (Homo sapiens, UniProt P32246); experiment: CEREP binding profile: CCR1
T6 construct: CEREP
From the text: as §1

[7] = biological target: T7, Cholecystokinin CCK1 (CCKA) (Homo sapiens, UniProt P32238); experiment: CEREP binding profile: CCK1
T7 construct: CEREP
From the text: as §1

[8] = biological target: T8, Cholecystokinin CCK2 (CCKB) (Homo sapiens, UniProt P32239); experiment: CEREP binding profile: CCK2
T8 construct: CEREP
T8 sequence (P32239 whole entry): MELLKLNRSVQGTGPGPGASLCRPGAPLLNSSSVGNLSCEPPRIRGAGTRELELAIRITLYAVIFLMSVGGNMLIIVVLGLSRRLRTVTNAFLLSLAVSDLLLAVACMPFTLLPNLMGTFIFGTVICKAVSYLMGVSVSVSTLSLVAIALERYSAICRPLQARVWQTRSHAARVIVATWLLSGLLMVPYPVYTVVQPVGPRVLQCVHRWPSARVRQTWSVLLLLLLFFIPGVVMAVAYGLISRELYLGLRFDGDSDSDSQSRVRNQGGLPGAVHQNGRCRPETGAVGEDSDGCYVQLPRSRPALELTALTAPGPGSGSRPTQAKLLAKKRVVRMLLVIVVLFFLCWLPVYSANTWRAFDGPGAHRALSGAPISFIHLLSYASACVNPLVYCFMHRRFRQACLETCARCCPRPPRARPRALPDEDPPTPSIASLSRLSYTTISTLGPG
From the text: as §1

[9] = biological target: T9, Dopamine D1 (Homo sapiens, UniProt P21728); experiment: CEREP binding profile: D1
T9 construct: CEREP
T9 sequence (P21728 whole entry): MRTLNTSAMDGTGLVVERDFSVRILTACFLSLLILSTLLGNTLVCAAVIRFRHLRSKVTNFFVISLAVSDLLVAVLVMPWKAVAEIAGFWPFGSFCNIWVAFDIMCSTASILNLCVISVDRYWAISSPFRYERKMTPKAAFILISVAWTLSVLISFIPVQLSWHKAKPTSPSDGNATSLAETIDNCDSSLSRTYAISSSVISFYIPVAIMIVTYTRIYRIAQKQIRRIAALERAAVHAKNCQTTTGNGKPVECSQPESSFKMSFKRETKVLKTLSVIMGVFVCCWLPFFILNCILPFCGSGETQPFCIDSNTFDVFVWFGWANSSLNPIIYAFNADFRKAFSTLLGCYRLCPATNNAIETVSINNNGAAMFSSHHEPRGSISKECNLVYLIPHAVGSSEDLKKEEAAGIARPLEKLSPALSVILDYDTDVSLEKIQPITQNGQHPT
From the text: as §1

[10] = biological target: T10, Dopamine D5 (Homo sapiens, UniProt P21918); experiment: CEREP binding profile: D5
T10 construct: CEREP
T10 sequence (P21918 whole entry): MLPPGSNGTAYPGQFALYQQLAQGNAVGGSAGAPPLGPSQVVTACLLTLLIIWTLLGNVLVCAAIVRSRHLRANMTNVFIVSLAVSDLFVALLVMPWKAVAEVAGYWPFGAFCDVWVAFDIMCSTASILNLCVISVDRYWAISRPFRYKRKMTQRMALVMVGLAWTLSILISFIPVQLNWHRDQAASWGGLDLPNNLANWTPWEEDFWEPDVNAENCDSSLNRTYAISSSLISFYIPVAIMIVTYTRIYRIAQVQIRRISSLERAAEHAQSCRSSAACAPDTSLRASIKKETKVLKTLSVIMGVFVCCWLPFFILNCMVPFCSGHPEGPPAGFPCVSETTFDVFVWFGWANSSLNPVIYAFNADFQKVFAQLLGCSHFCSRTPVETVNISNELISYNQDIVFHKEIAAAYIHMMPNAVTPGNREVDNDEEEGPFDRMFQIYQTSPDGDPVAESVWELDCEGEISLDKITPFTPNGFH
From the text: as §1

[11] = biological target: Galanin GAL1 (Homo sapiens, UniProt P47211); experiment: CEREP binding profile: GAL1
From the text: as §1

[12] = biological target: Melanocortin MC4 (Homo sapiens, UniProt P32245); experiment: CEREP binding profile: MC4
Chain of Melanocortin MC4 (P32245 whole entry): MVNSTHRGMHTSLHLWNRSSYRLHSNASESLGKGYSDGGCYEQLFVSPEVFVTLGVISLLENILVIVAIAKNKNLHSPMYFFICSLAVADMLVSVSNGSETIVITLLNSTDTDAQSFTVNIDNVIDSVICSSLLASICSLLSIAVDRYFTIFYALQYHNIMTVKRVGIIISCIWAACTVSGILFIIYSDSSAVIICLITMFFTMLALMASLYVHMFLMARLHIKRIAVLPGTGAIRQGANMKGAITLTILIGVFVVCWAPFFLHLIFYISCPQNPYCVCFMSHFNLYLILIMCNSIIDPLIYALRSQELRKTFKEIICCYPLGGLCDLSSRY
From the text: as §1

[13] = biological target: Muscarinic M3 (Homo sapiens, UniProt P20309); experiment: CEREP binding profile: M3
From the text: as §1

[14] = biological target: Neurokinin NK3 (Homo sapiens, UniProt P29371); experiment: CEREP binding profile: NK3
Chain of Neurokinin NK3 (P29371 whole entry): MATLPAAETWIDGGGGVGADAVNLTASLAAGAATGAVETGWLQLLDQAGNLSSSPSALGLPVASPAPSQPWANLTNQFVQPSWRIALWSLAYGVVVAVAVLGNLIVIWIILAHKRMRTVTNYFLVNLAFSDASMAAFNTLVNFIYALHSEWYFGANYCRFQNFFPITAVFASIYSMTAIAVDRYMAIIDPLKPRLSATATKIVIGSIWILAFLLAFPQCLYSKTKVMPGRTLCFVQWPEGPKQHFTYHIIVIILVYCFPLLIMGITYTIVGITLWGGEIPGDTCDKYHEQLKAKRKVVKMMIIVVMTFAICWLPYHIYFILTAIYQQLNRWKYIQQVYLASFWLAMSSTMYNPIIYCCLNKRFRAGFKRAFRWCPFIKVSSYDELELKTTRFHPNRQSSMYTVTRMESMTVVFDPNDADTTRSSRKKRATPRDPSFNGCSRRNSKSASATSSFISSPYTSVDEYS
From the text: as §1

[15] = biological target: Neurotensin NTS1 (NT1) (Homo sapiens, UniProt P30989); experiment: CEREP binding profile: NTS1
Chain of Neurotensin NTS1 (NT1) (P30989 whole entry): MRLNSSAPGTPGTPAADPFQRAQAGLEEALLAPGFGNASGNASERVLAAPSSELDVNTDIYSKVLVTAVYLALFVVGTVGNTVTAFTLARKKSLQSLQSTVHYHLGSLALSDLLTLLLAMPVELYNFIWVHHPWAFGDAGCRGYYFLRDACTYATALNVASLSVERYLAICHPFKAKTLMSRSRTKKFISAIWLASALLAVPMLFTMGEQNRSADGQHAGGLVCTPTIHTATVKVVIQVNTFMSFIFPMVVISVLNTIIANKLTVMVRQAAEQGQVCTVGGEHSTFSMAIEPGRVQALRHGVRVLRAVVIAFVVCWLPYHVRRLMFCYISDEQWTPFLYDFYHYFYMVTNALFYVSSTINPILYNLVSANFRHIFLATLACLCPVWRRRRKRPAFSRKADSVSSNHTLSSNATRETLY
From the text: as §1

[16] = biological target: Opioid and opioid-like mu (MOP) (Homo sapiens, UniProt P35372); experiment: CEREP binding profile: mu; details: 10 μM
Chain of Opioid and opioid-like mu (MOP) (P35372 whole entry): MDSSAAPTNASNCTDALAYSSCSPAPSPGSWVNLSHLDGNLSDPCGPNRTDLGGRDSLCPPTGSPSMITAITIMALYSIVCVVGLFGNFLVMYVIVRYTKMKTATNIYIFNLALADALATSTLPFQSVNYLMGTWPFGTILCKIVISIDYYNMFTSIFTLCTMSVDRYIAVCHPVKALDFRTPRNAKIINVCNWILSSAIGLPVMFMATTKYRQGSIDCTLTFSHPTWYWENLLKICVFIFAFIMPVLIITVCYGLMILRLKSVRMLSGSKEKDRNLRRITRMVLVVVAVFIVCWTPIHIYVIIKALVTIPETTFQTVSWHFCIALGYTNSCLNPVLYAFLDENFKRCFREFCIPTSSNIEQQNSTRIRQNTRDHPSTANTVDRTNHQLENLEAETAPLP
From the text: as §1

[17] = biological target: Opioid and opioid-like NOP (ORL1) (Homo sapiens, UniProt P41146); experiment: CEREP binding profile: NOP; details: 10 μM
Chain of Opioid and opioid-like NOP (ORL1) (P41146 whole entry, species assumed): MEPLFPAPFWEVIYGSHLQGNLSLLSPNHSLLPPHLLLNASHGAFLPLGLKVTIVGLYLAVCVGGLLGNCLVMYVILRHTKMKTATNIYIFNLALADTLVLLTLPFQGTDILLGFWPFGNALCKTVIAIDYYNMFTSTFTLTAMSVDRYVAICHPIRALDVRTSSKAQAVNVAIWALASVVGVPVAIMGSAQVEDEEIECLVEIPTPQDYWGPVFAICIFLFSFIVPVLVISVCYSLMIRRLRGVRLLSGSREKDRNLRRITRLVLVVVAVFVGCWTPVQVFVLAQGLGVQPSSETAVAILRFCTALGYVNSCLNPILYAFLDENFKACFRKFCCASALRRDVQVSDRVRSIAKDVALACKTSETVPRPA
From the text: as §1

[18] = biological target: Prostanoid EP2 (Homo sapiens, UniProt P43116); experiment: CEREP binding profile: EP2
Chain of Prostanoid EP2 (P43116 whole entry): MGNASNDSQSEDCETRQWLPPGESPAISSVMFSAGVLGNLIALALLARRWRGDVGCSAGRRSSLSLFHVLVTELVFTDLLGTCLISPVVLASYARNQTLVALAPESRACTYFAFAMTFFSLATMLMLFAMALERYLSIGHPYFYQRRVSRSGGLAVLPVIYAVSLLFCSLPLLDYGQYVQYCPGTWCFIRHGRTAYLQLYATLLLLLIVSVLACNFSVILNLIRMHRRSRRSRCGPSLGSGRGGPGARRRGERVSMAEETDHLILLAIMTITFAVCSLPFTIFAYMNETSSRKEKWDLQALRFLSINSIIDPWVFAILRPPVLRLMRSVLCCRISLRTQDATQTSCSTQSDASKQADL
From the text: as §1

[19] = biological target: Prostanoid IP (PGI2) (Homo sapiens, UniProt P43119); experiment: CEREP binding profile: IP
From the text: as §1

[20] = test system: Somatostatin sst; experiment: CEREP binding profile: sst; details: 10 μM
From the text: as §1

[21] = biological target: T11, Vasoactive intestinal peptide VPAC1 (VIP1) (Homo sapiens, UniProt P32241); experiment: CEREP binding profile: VPAC1
T11 construct: CEREP (contract panel)
T11 sequence (P32241 31-457): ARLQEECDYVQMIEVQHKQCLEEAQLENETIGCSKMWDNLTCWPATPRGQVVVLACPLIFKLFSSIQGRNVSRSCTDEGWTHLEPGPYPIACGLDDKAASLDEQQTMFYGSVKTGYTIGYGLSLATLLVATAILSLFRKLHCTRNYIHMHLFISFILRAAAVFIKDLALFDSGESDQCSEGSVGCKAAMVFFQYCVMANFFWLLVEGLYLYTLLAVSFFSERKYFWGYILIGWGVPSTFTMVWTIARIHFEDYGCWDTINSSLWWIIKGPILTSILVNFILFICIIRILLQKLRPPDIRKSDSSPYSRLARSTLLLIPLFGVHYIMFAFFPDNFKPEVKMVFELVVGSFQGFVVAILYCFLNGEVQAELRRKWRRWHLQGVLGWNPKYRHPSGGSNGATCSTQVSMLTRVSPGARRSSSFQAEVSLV
From the text: as §1

[22] = biological target: T12, Serotonin 5-HT2A (Homo sapiens, UniProt P28223); experiment: CEREP binding profile: 5-HT2A
T12 construct: CEREP (contract panel)
T12 sequence (P28223 whole entry): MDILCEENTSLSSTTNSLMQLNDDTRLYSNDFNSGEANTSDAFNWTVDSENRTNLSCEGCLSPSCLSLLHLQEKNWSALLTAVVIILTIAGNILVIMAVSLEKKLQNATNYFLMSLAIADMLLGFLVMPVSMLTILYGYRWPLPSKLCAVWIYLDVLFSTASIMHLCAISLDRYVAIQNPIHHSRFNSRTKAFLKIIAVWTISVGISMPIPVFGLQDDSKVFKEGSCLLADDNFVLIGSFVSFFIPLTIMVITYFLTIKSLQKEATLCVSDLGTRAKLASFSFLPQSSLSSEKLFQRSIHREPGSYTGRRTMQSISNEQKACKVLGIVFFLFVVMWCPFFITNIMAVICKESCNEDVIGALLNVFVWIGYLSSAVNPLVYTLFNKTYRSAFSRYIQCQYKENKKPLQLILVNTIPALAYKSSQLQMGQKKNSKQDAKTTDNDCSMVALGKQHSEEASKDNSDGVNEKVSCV
From the text: as §1

[23] = biological target: T13, Serotonin 5-HT5a (Homo sapiens, UniProt P47898); experiment: CEREP binding profile: 5-HT5a
T13 construct: CEREP (contract panel)
From the text: as §1

[24] = test system: Ca2+ channels Ca2+-L; experiment: CEREP binding profile: Ca2+-L; details: 10 μM
From the text: as §1

[25] = biological target: T14, Transporters Norepinephrine (Homo sapiens, UniProt P23975); experiment: CEREP binding profile: norepinephrine transporter
T14 construct: CEREP (contract panel)
From the text: as §1

[26] = test system: GABA Cl- channel; experiment: CEREP binding profile: Cl- channel; details: 10 μM
From the text: as §1

[27] = test system: Growth factors PDGF; experiment: CEREP binding profile: PDGF; details: 10 μM
From the text: as §1

[28] = test system: Steroid nuclear receptors ER; experiment: Binding: ER; details: 10 μM
From the text: as §1

[29] = biological target: T15, Steroid nuclear receptors PR (Homo sapiens, UniProt P06401); experiment: Binding: PR
T15 construct: CEREP
T15 sequence (P06401 1-933): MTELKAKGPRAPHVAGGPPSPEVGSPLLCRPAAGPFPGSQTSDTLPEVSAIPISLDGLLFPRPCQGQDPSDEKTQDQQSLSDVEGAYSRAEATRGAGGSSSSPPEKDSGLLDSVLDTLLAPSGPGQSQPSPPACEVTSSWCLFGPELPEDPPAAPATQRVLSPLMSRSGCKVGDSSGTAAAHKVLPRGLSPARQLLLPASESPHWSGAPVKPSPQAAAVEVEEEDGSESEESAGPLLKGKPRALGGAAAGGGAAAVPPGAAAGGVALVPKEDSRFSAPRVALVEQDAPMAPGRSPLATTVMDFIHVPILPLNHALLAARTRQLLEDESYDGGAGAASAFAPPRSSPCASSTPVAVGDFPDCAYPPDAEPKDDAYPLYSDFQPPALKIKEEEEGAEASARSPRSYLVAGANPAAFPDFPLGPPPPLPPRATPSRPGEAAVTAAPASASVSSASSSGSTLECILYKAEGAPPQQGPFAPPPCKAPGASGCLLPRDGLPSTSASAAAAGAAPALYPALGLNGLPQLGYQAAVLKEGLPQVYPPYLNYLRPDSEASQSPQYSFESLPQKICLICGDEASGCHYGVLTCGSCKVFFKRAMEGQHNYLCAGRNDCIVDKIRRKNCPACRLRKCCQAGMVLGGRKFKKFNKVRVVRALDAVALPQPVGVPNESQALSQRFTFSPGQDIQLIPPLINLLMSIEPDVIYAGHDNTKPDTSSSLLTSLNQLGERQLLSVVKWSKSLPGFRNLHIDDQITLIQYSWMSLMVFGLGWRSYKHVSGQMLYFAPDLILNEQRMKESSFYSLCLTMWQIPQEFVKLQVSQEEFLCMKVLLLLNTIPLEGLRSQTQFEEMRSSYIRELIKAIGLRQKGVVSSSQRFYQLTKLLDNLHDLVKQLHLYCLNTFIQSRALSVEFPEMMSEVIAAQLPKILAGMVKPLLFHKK
From the text: as §1

[30] = biological target: PXR (non-steroid nuclear receptor) (Homo sapiens, UniProt O75469); experiment: Binding: PXR
From the text: as §1

| SMILES | inhibition at 10 µM [1] | inhibition at 10 µM [2] | inhibition at 10 µM [4] | inhibition at 10 µM [5] | inhibition at 10 µM [6] | inhibition at 10 µM [7] | inhibition at 10 µM [8] | inhibition at 10 µM [11] | inhibition at 10 µM [12] | inhibition at 10 µM [14] | inhibition at 10 µM [15] | % Inhibition [16] | % Inhibition [17] | inhibition at 10 µM [18] | inhibition at 10 µM [19] | % Inhibition [20] | inhibition at 10 µM [21] | % Inhibition [24] | Inhibition % [26] | Inhibition % [27] | also measured |
| --- | --- | --- | --- | --- | --- | --- | --- | --- | --- | --- | --- | --- | --- | --- | --- | --- | --- | --- | --- | --- | --- |
| CC(=O)[C@H]1CC[C@H]2[C@@H]3CC=C4C[C@@H](O)CC[C@]4(C)[C@H]3CC[C@]12C [pregnenolone, reference compound] | -25% | 11% | -18% | -9% | -10% | -30% | -38% | -16% | -15% | 11% | -19% | −5% | 2% | 24% | -12% | −8% | -10% | −19% | 29% | −15% | inhibition at 10 µM [3]: -5%; inhibition at 10 µM [9]: -8%; inhibition at 10 µM [10]: -4%; inhibition at 10 µM ([13]; M3, 10 μM, read-out: % Inhibition): 2%; inhibition at 10 µM ([22]; 5-HT2A, 10 μM, read-out: % Inhibition): -1%; inhibition at 10 µM [23]: 11%; inhibition at 10 µM ([25]; norepinephrine transporter, 10 μM, read-out: % Inhibition): -12%; Inhibition % [28]: 26%; inhibition at 10 µM [29]: > 80%; Inhibition % ([29]; 10 μM): 87%; inhibition at 10 µM ([30]; PXR receptor binding assay (ligand displacement)): 15% |
| CC(=O)[C@@]1(C)CC[C@H]2[C@@H]3CC=C4C[C@@H](OCc5ccccc5)CC[C@]4(C)[C@H]3CC[C@@]21C [3Bn17MeP, 3β-benzyloxy, 17α-methyl-pregn-5-en-20-one] | -27% | 1% | -5% | 0% | -13% | 2% | -21% | -26% | -10% | 7% | -13% | −4% | 2% | 19% | 0% | −6% | -17% | 12% | 1% | −13% | % Inhibition ([3]; 10 μM): −4%; % Inhibition ([9]; 10 μM): −10%; % Inhibition ([10]; 10 μM): −6%; inhibition at 10 µM [13]: 16%; inhibition at 10 µM [22]: -8%; % Inhibition ([23]; 10 μM): 2%; inhibition at 10 µM [25]: -1%; Inhibition % [28]: −5%; inhibition at 10 µM [29]: 20%; inhibition at 10 µM [30]: -8% |
